Measured values: the NIST ThermoML archive (doi:10.1016/j.jct.2019.03.023)
Numbers after ± are expanded uncertainties.

Assay: molar heat capacity at constant volume
Details: Fluid (supercritical or subcritical phases), Vacuum adiabatic calorimetry

CC(C)O [propan-2-ol]
Details	molar heat capacity at constant volume [J/K/mol]
509.12 K, Mass density=288.99 kg/m3	208.89 ± 6.2
509.12 K, Mass density=293.3 kg/m3	205.89 ± 6.2
509.12 K, Mass density=324.5 kg/m3	193.27 ± 5.8
509.13 K, Mass density=255.8 kg/m3	235.45 ± 7.1
509.21 K, Mass density=234.3 kg/m3	205.65 ± 6.2
509.21 K, Mass density=266.3 kg/m3	238.7 ± 7.2
509.21 K, Mass density=274 kg/m3	233.71 ± 7
509.21 K, Mass density=281.9 kg/m3	212.8 ± 6.4
509.22 K, Mass density=293.3 kg/m3	199.52 ± 6
509.31 K, Mass density=234.3 kg/m3	202.04 ± 6.1
509.31 K, Mass density=255.8 kg/m3	218.33 ± 6.6
509.31 K, Mass density=266.3 kg/m3	229.68 ± 6.9
509.31 K, Mass density=274 kg/m3	224.45 ± 6.7
509.31 K, Mass density=281.9 kg/m3	208.17 ± 6.2
509.31 K, Mass density=293.3 kg/m3	198.91 ± 5.9
509.35 K, Mass density=329.2 kg/m3	179.56 ± 5.4
509.4 K, Mass density=234.3 kg/m3	198.61 ± 5.9
509.4 K, Mass density=255.8 kg/m3	215.14 ± 6.5
509.4 K, Mass density=274 kg/m3	219.83 ± 6.6
509.41 K, Mass density=281.9 kg/m3	208.71 ± 6.2
509.41 K, Mass density=293.3 kg/m3	198.91 ± 5.9
509.45 K, Mass density=329.2 kg/m3	180.16 ± 5.4
509.49 K, Mass density=234.3 kg/m3	198.97 ± 5.9
509.49 K, Mass density=255.8 kg/m3	213.4 ± 6.4
509.49 K, Mass density=266.3 kg/m3	223.31 ± 6.7
509.49 K, Mass density=274 kg/m3	219.83 ± 6.6
509.49 K, Mass density=281.9 kg/m3	204.98 ± 6.1
509.55 K, Mass density=329.2 kg/m3	178.84 ± 5.3
509.59 K, Mass density=234.3 kg/m3	196.21 ± 5.9
509.59 K, Mass density=255.8 kg/m3	210.09 ± 6.3
509.59 K, Mass density=266.3 kg/m3	219.59 ± 6.6
509.59 K, Mass density=274 kg/m3	215.2 ± 6.5
509.59 K, Mass density=324.5 kg/m3	183.83 ± 5.5
509.64 K, Mass density=329.2 kg/m3	179.98 ± 5.4
509.68 K, Mass density=234.3 kg/m3	196.87 ± 5.9
509.68 K, Mass density=255.8 kg/m3	209.01 ± 6.2
509.68 K, Mass density=266.3 kg/m3	217 ± 6.5
509.68 K, Mass density=274 kg/m3	213.04 ± 6.4
509.68 K, Mass density=324.5 kg/m3	191.16 ± 5.8
509.77 K, Mass density=234.3 kg/m3	196.09 ± 5.9
509.77 K, Mass density=255.8 kg/m3	206.37 ± 6.2
509.77 K, Mass density=266.3 kg/m3	209.67 ± 6.3
509.77 K, Mass density=274 kg/m3	213.04 ± 6.4
509.77 K, Mass density=324.5 kg/m3	189.06 ± 5.6
509.79 K, Mass density=329.2 kg/m3	177.46 ± 5.3
509.86 K, Mass density=234.3 kg/m3	195.79 ± 5.9
509.86 K, Mass density=255.8 kg/m3	204.2 ± 6.1
509.86 K, Mass density=266.3 kg/m3	209.67 ± 6.3
509.86 K, Mass density=274 kg/m3	208.41 ± 6.2
509.86 K, Mass density=293.3 kg/m3	194.17 ± 5.8
509.87 K, Mass density=324.5 kg/m3	183.23 ± 5.5
509.96 K, Mass density=255.8 kg/m3	202.1 ± 6.1
509.96 K, Mass density=266.3 kg/m3	209.67 ± 6.3
509.96 K, Mass density=274 kg/m3	204.8 ± 6.1
509.96 K, Mass density=281.9 kg/m3	202.4 ± 6.1
509.96 K, Mass density=293.3 kg/m3	192.18 ± 5.8
509.96 K, Mass density=324.5 kg/m3	187.5 ± 5.6
509.99 K, Mass density=329.2 kg/m3	177.28 ± 5.3
510.05 K, Mass density=255.8 kg/m3	200 ± 6
510.05 K, Mass density=266.3 kg/m3	209.73 ± 6.3
510.05 K, Mass density=274 kg/m3	203.84 ± 6.1
510.05 K, Mass density=281.9 kg/m3	206.97 ± 6.2
510.05 K, Mass density=293.3 kg/m3	195.37 ± 5.9
510.05 K, Mass density=324.5 kg/m3	181.31 ± 5.5
510.05 K, Mass density=343.1 kg/m3	174.7 ± 5.2
510.14 K, Mass density=255.8 kg/m3	198.91 ± 5.9
510.14 K, Mass density=266.3 kg/m3	211.53 ± 6.4
510.14 K, Mass density=274 kg/m3	203.36 ± 6.1
510.14 K, Mass density=281.9 kg/m3	197.95 ± 5.9
510.14 K, Mass density=293.3 kg/m3	191.4 ± 5.8
510.14 K, Mass density=324.5 kg/m3	187.92 ± 5.6
510.14 K, Mass density=329.2 kg/m3	178.12 ± 5.3
510.14 K, Mass density=343.1 kg/m3	178.42 ± 5.3
510.23 K, Mass density=329.2 kg/m3	177.94 ± 5.3
510.24 K, Mass density=274 kg/m3	204.02 ± 6.1
510.24 K, Mass density=281.9 kg/m3	197.95 ± 5.9
510.24 K, Mass density=293.3 kg/m3	198.43 ± 5.9
510.24 K, Mass density=324.5 kg/m3	181.85 ± 5.5
510.24 K, Mass density=343.1 kg/m3	185.87 ± 5.6
510.33 K, Mass density=274 kg/m3	202.52 ± 6.1
510.33 K, Mass density=281.9 kg/m3	193.45 ± 5.8
510.33 K, Mass density=293.3 kg/m3	191.1 ± 5.8
510.33 K, Mass density=324.5 kg/m3	181.73 ± 5.5
510.33 K, Mass density=329.2 kg/m3	176.68 ± 5.3
510.33 K, Mass density=343.1 kg/m3	182.15 ± 5.5
510.42 K, Mass density=274 kg/m3	204.68 ± 6.1
510.42 K, Mass density=281.9 kg/m3	198.01 ± 5.9
510.42 K, Mass density=293.3 kg/m3	187.02 ± 5.6
510.42 K, Mass density=324.5 kg/m3	183.05 ± 5.5
510.42 K, Mass density=343.1 kg/m3	178.48 ± 5.3
510.48 K, Mass density=329.2 kg/m3	178.6 ± 5.3
510.51 K, Mass density=281.9 kg/m3	193.69 ± 5.8
